{
  "source": "patent US20130109581A1",
  "about": "“POSITIVELY CHARGED SPECIES AS BINDING REAGENTS IN THE SEPARATION OF PROTEIN AGGREGATES FROM MONOMERS” (priority 2009, published 2013)",
  "format_in_all_cases": "binding",
  "key": {"Aβ42 ADDL": {"biological_target": "Aβ42 ADDL (Homo sapiens, UniProt P05067)", "sequence (P05067 672-713 limits assumed)": "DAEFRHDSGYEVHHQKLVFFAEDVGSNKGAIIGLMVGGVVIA", "experiment": "Misfolded Protein Assay, LoD and capture in CSF: ADDL", "settings": "for LoD: spiked into CSF", "description": "(§1) The Ab42 aggregates were prepared as previously described: fibrils were prepared per Stine et al (JBC 2003, 278, p11612), globulomers were prepared per Barghorn et al (J Neurology 2005 95 p834), ADDLs were prepared per Lambert et al (PNAS 1998, 95 p6448), and ASPDs were prepared per Noguchi et al (JBC 2009 284 p32895). Normal CSF was pooled from clinically characterized non-demented patient CSF samples. AD CSF was pooled from clinically-characterized AD patient samples. Alzheimer's Disease Brain Homogenate (ADBH) was prepared by sonication of clinically diagnosed AD patient brain samples in 0.2M.sucrose (1:10 w/v).\n(§2) For the capture assay (Misfolded Protein Assay), aliquots of the beads (30 ul) were added to wells of a 96 well plate, followed by 125 ul of sample in 80:20 CSF:TBSTT. The plate was sealed and incubated for 1 h at 37 C with shaking. The plate was washed with TBST and the residual buffer removed. A denaturing solution (0.1 N NaOH) was added to each well and the plate heated to 80 C. for 30 min with shaking. After cooling the plate to RT, a neutralizing buffer (0.12 M NaH2PO3-0.4% TW20,) was added and the plate shaken briefly at RT. The assay was analyzed using the triplex Mesoscale Discovery ELISA kit for Aβ. The Aβ in the samples eluted from the beads were detected per the manufacturer's protocol.\n(§3) For the Limit of Detection (LoD) studies, serial dilutions of each aggregate were spiked into CSF and were assayed per the protocol described above. The LoD was defined as 2× over background levels.\n(§4) This pattern minors the capture selectivity observed when these species are tested with 3 ul of PSR1 beads and 1 ng/mL of aggregate."}, "Aβ42 ASPD": {"biological_target": "T1, Aβ42 ASPD (Homo sapiens, UniProt P05067)", "T1 construct": "The Ab42 aggregates were prepared as previously described", "T1 sequence (P05067 672-713 limits assumed)": "as above", "experiment": "Misfolded Protein Assay, LoD and capture in CSF: ASPD", "settings": "for LoD: spiked into CSF", "description": "as §1, §2, §3, §4"}, "[1]": {"biological_target": "T2, AA-related moieties (serum amyloid A aggregates) (Mus musculus, UniProt P05367)", "T2 construct": "These experiments indicate that PSR1-coated beads can capture AA-related moieties; from tissue; host or cells: spleen homogenate of mice with induced AA amyloidosis", "T2 sequence (P05367 20-94 limits assumed)": "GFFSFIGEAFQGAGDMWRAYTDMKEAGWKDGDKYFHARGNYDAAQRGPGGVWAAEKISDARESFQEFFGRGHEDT", "experiment": "PSR-1 bead-based capture of AA species from spleen homogenates", "description": "Amyloid enhancing factor (AEF) was extracted from amyloid-laden liver as described earlier, and used for amyloid induction in four different groups of mice. Each mouse received 20 ug of protein extract as an intravenous injection in the tail vein and systemic inflammation was stimulated by concomitant subcutaneous injection of 0.2 ml 1% silver nitrate (AgNO3). Further inflammatory stimuli were given once a week on day 7, 14 and 21. Mice were sacrificed in several time points on day 5, 9, 16 and 23. Control mice received only single silver nitrate injection and were sacrificed 16 hrs later.\n10% spleen homogenates were prepared in PBS, […], using an ultra-sound tissue homogenizator. Homogenates were centrifuged at 200×g for 1 min and the supernatants were used for the PSR1 bead-based capture assay. For immunoblotting analysis the PBS-insoluble tissue pellet was solubilised in 8M urea for 24 hrs on a wheel at room temperature.\nPSR1-conjugated beads were washed two times with 1 ml of TBS-TT (TBS, 1% TritonX, 1% Tween20) before incubation with 10% spleen homogenate in a total volume of 100 μl TBS-TT for 1 hr at 37° C. and under shaking at 750 rpm. […] 150 ul of eluate was aspirated from the beads and the presence of SAA/AA proteins were analysed using the mouse SAA ELISA from Tridelta Ltd. or by immunoblotting. […]"}, "[2]": {"settings": "3 ul of beads and 1 ng/mL of aggregate"}},
  "note": "Values joined by “and” are separate entries in the source; they are usually repeats but may differ in a detail not shown here. Equal values may be shown once.",
  "data": [
    {"substance": "Nab-Nab-Nab-Nbn-Nab-Nbn [PSR1]", "values": [
      {"measurement": "capture of ADDL", "setting": "Aβ42 ADDL; [2]", "value": 1219},
      {"measurement": "LoD", "setting": "Aβ42 ADDL", "value": "~20", "unit": "amol"},
      {"measurement": "LoD", "setting": "Aβ42 ADDL; LoD = 2× over background", "value": "~200 pg/mL and 200 pg/mL"},
      {"measurement": "capture of ASPD", "setting": "Aβ42 ASPD; [2]", "value": 1096},
      {"measurement": "LoD", "setting": "Aβ42 ASPD", "value": "~20", "unit": "amol"},
      {"measurement": "LoD", "setting": "Aβ42 ASPD; LoD = 2× over background", "value": "~200 pg/mL and 200 pg/mL"},
      {"measurement": "SAA detected in eluates (sandwich ELISA)", "setting": "[1]; 3 uL PSR1 beads, spleen homogenate with splenic AA vs untreated control", "value": "SAA could be detected only in the eluates from the AA-containing sample"},
      {"measurement": "SAA detected in eluates after denaturation of input", "setting": "[1]; denatured, buffered and undenatured AA-containing samples, FIG. 44", "value": "SAA could be detected only in the eluates from undenatured or buffered AA-containing samples"}
    ]}
  ]
}
